Like-named read-outs stand apart in the source and are kept apart here.
Assays:
[1] = tumor-bearing rats, 14C-penclomedine; cited from earlier work
human MX-1 mammary tumor = assay: In vivo antitumor activity vs i.c.-implanted human MX-1 mammary tumor xenograft in athymic mice; conditions: ic MX-1; optimal doses (LD10 or less), schedule QD1-5, administered LP.
P388/0 leukemia = conditions: P388/0, Q1D × 5 (1); for MEDIAN DAY OF DEATH: dying mice only
P388/CPA leukemia = assay: Antitumor activity against IP-implanted P388/CPA leukemia in mice; assay type: in vivo, murine; conditions: P388/CPA, Q1D × 5 (1)
P388/L-PAM leukemia = conditions: for 50-DAY SURV/TOTAL / % ILS / APPROX. NET LOG10 CHANGE IN TUMOR BURDEN AT END OF Rx / MEDIAN DAY OF DEATH: P388/L-PAM, Q1D × 5 (1); for MEDIAN DAY OF DEATH: dying mice only
P388/BCNU leukemia = assay: Antitumor activity against IP-implanted P388/BCNU leukemia in mice; conditions: P388/BCNU, Q1D × 5 (1); for MEDIAN DAY OF DEATH: dying mice only
patients = patients with advanced solid tumors; one hour infusion for 5 consecutive days; cited from earlier work

COc1nc(C(Cl)(Cl)Cl)c(Cl)c(OC)c1Cl [PEN, 3,5-dichloro-2,4-dimethoxy-6-(trichloromethyl)pyridine]
predominant radioactive species in the brain [1]: predominant radioactive species in the brain was penclomedine
Median % ILS (based on dying mice only) (human MX-1 mammary tumor): 88%
Survivors (human MX-1 mammary tumor): 0/5
50-DAY SURV/TOTAL (P388/0 leukemia; IP 60.0 mg/kg/dose): 0/6
% ILS (P388/0 leukemia; IP 60.0 mg/kg/dose): +31%
APPROX. NET LOG10 CHANGE IN TUMOR BURDEN AT END OF Rx (P388/0 leukemia; IP 60.0 mg/kg/dose): +0.4
50-DAY SURV/TOTAL (P388/0 leukemia; IP 90.0 mg/kg/dose): 0/6
% ILS (P388/0 leukemia; IP 90.0 mg/kg/dose): +45%
APPROX. NET LOG10 CHANGE IN TUMOR BURDEN AT END OF Rx (P388/0 leukemia; IP 90.0 mg/kg/dose): −0.8
MEDIAN DAY OF DEATH (P388/0 leukemia; IP 90.0 mg/kg/dose): 18.0
50-DAY SURV/TOTAL (P388/0 leukemia; IP 135.0 mg/kg/dose): 0/6
% ILS (P388/0 leukemia; IP 135.0 mg/kg/dose): +90%
APPROX. NET LOG10 CHANGE IN TUMOR BURDEN AT END OF Rx (P388/0 leukemia; IP 135.0 mg/kg/dose): −4.8
MEDIAN DAY OF DEATH (P388/0 leukemia; IP 135.0 mg/kg/dose): 21.0
50-DAY SURV/TOTAL (P388/CPA leukemia; IP 60.0 mg/kg/dose): 0/6
% ILS (P388/CPA leukemia; IP 60.0 mg/kg/dose): −5%
APPROX. NET LOG10 CHANGE IN TUMOR BURDEN AT END OF Rx (P388/CPA leukemia; IP 60.0 mg/kg/dose): +1.7
50-DAY SURV/TOTAL (P388/CPA leukemia; IP 90.0 mg/kg/dose): 0/6
% ILS (P388/CPA leukemia; IP 90.0 mg/kg/dose): −5%
APPROX. NET LOG10 CHANGE IN TUMOR BURDEN AT END OF Rx (P388/CPA leukemia; IP 90.0 mg/kg/dose): +1.7
50-DAY SURV/TOTAL (P388/CPA leukemia; IP 135.0 mg/kg/dose): 0/6
% ILS (P388/CPA leukemia; IP 135.0 mg/kg/dose): −5%
APPROX. NET LOG10 CHANGE IN TUMOR BURDEN AT END OF Rx (P388/CPA leukemia; IP 135.0 mg/kg/dose): +1.7
50-DAY SURV/TOTAL (P388/L-PAM leukemia; IP 60.0 mg/kg/dose): 0/6
% ILS (P388/L-PAM leukemia; IP 60.0 mg/kg/dose): 0%
APPROX. NET LOG10 CHANGE IN TUMOR BURDEN AT END OF Rx (P388/L-PAM leukemia; IP 60.0 mg/kg/dose): +1.4
MEDIAN DAY OF DEATH (P388/L-PAM leukemia; IP 60.0 mg/kg/dose): 14.0
50-DAY SURV/TOTAL (P388/L-PAM leukemia; IP 90.0 mg/kg/dose): 0/6
% ILS (P388/L-PAM leukemia; IP 90.0 mg/kg/dose): −8%
APPROX. NET LOG10 CHANGE IN TUMOR BURDEN AT END OF Rx (P388/L-PAM leukemia; IP 90.0 mg/kg/dose): +1.6
MEDIAN DAY OF DEATH (P388/L-PAM leukemia; IP 90.0 mg/kg/dose): 13.0
50-DAY SURV/TOTAL (P388/L-PAM leukemia; IP 135.0 mg/kg/dose): 0/6
% ILS (P388/L-PAM leukemia; IP 135.0 mg/kg/dose): −8%
APPROX. NET LOG10 CHANGE IN TUMOR BURDEN AT END OF Rx (P388/L-PAM leukemia; IP 135.0 mg/kg/dose): +1.6
MEDIAN DAY OF DEATH (P388/L-PAM leukemia; IP 135.0 mg/kg/dose): 13.0
activity in the P388/L-PAM tumor model (in words) (P388/L-PAM leukemia; mouse, in vivo): none of the three showed significant activity
50-DAY SURV/TOTAL (P388/BCNU leukemia; IP 60.0 mg/kg/dose): 0/6
% ILS (P388/BCNU leukemia; IP 60.0 mg/kg/dose): −6%
APPROX. NET LOG10 CHANGE IN TUMOR BURDEN AT END OF Rx (P388/BCNU leukemia; IP 60.0 mg/kg/dose): +1.8
MEDIAN DAY OF DEATH (P388/BCNU leukemia; IP 60.0 mg/kg/dose): 8.5
50-DAY SURV/TOTAL (P388/BCNU leukemia; IP 90.0 mg/kg/dose): 0/6
% ILS (P388/BCNU leukemia; IP 90.0 mg/kg/dose): 0%
APPROX. NET LOG10 CHANGE IN TUMOR BURDEN AT END OF Rx (P388/BCNU leukemia; IP 90.0 mg/kg/dose): +1.7
MEDIAN DAY OF DEATH (P388/BCNU leukemia; IP 90.0 mg/kg/dose): 9.0
50-DAY SURV/TOTAL (P388/BCNU leukemia; IP 135.0 mg/kg/dose): 0/6
% ILS (P388/BCNU leukemia; IP 135.0 mg/kg/dose): +27%
APPROX. NET LOG10 CHANGE IN TUMOR BURDEN AT END OF Rx (P388/BCNU leukemia; IP 135.0 mg/kg/dose): +1.2
neurotoxicity (dysmetria, ataxia, vertigo) (patients): principal dose limiting toxicity

From patent US6376518B1, “Acyl derivatives of 4-demethylpenclomedine, use thereof and preparation thereof” (Southern Research Institute, priority 1999, dated 2002)
